Source: publication PMC11599599, “Synthesis, characterization, molecular docking, pharmacokinetics, and molecular dynamics of new bis-thiazoles based on bis-thiosemicarbazone as anti-coxsackievirus” (Scientific Reports, 2024)

What was measured:
Format in all cases: cell-based
[1] = system: Cox B virus; assay: Mechanism of virus inhibition: viral replication; settings: for Viral count (treated): Replication, control 1.6 × 10^7
Experimental: (§1) For a compound having an antiviral effect, this might be due to the effect on viral replication, the effect on viral adsorption, or the direct effect on the viral particle.
Viral replication[48] Assay was carried out in a 6-well plate where Vero cells were cultivated (10^5 cells/ml) for 1 day at 37 °C. The cells were directly inoculated with the virus. After an hour of incubation, unadsorbed viral particles were eliminated by repeatedly washing the cells with PBS.
The compound was applied at different concentrations, and after 1 h contact time, 2 mL of DMEM medium supplemented with 2% agarose were added to the cell monolayer. Plates were left to solidify then incubated till the appearance of plaques.

[2] = system: Cox B virus; assay: Mechanism of virus inhibition: virucidal; settings: for Viral count (treated): Virucidal, control 1.6 × 10^7
Experimental: For a compound having an antiviral effect, this might be due to the effect on viral replication, the effect on viral adsorption, or the direct effect on the viral particle. Virucidal[50] the assay was conducted in a 6-well plate with Vero cells that were cultured for two days at 37 °C (10^5 cells/mL). A volume of […] serum-free DMEM containing 1.5 × 10^2 PFU from Cox B was added to the concentration of the compound resulting in viral inhibition, after 1 h incubation, The mixture was diluted three times using serum-free media, which leaves almost no extract but still permits the existence of virus particles to develop on Vero cells. 100 mL of each dilution was then introduced to the Vero cell monolayer. The DMEM overlayer was added to the cell monolayer after a one-hour contact period. The plates were left to solidify then incubated till the appearance of plaques.

[3] = system: Cox B virus; assay: Mechanism of virus inhibition: viral adsorption; settings: for Viral count (treated): Adsorption, control 1.6 × 10^7
Experimental: as §1
Viral adsorption[49] Vero cells were cultivated in a 6-well plate (10^5 cells/mL) for 1 day at 37 °C. The compound was applied at different concentrations in […] medium without supplements and coincubated with the cells for 2 h at 4 °C. The virus was coincubated with the pretreatment cells for one hour after the unadsorbed extract was eliminated by washing the cells three times in PBS. Next, 2 mL of DMEM supplemented with 2% agarose were added. The plates were left to solidify and incubated till the appearance of plaques.

[4] = system: Cox B virus; assay: Plaque reduction assay against Cox B virus
Experimental: (§2) Compounds: 10 mg were dissolved in 1 mL (10% DMSO and 90% deionized water), sterilized by 1% antibiotic–antimycotic mixture and stored in −20.
(§3) Cells: Vero cell line was used. The cells were propagated in DMEM medium (Lonza, USA) supplemented with 10% fetal bovine serum (Gibco, USA), 1% antibiotic–antimycotic mixture (Lonza, USA).
Virus: Cox B virus was propagated and titrated to give final count of 0.9 × 10^5 viral particle/mL.
This test was done according to Tebas et al.[47], In a 12-well plate Vero cells (10^5 cells/mL) were cultivated for 1 day at 37 °C. The Cox B virus was mixed with the safe concentration of the compound and incubated for 1 h at 37 °C before being added to the cells. Following the removal of the growth media, the cells were injected with virus-extract combinations ([…]) and then rinsed with PBS (Phosphate Buffer Saline). Following a one-hour contact period for virus adsorption, the cell monolayer was supplemented with one milliliter of Dulbecco’s Modified Eagles Media (DMEM) containing 2% agarose. The plates were then allowed to solidify and incubated at 37 °C until the development of viral plaques. Formalin (10%) was added for 2 h then plates were stained with crystal violet. Control wells were included where untreated virus was incubated with Vero cells and finally plaques were counted and percentage reduction in plaques formation in comparison to control wells was recorded as following:
% inhibition = (viral count(untreated) - viral count(treated))/viral count(untreated)X100.

[5] = system: Vero cells; assay: Cytotoxicity assay on Vero cells (microscopic morphology); set-up: key to Cytotoxicity on Vero cells (cell sheet affected): -: Safe concentration; + 1, +2, + 3, +4: about 25, 50, 75, 100% of cell sheet was affected respectively; + 1, +2, + 3, +4: about 25, 50, 75, 100% of cell sheet was affected respectively; + 1, +2, + 3, +4: about 25, 50, 75, 100% of cell sheet was affected respectively; + 1, +2, + 3, +4: about 25, 50, 75, 100% of cell sheet was affected respectively; M: masked (color of compounds made cells unseen); settings: for Cytotoxicity on Vero cells (cell sheet affected): 24 h, morphological changes
Experimental: as §2, §3
Cytotoxic effect of compounds was measured by inoculation different doses of compounds on tested cells then examining them microscopically after 24 h to determine any morphological changes that appeared on cells as a result of being subjected to the compounds[46]. Vero cells were seeded onto 96-well plates, which were then incubated for the whole night. After a 24-hour incubation period at 37 °C in a humidified incubator with 5% CO2, compounds were injected at concentrations of 10, 20, 30, 40, 50, 60, 70, 80, 90, and 100 µg /100 µl. Any morphological changes were monitored under a microscope.

COc1ccc(OC)c(C=C2/C(=N/Nc3nc(C)c(/N=N/c4ccccc4)s3)c3ccccc3/C2=N\Nc2nc(C)c(/N=N/c3ccccc3)s2)c1 [7a, 2,2’-(((1E,3E)−2-(2,5-dimethoxybenzylidene)−1H-indene-1,3(2H)-diylidene)bis(hydrazin-1-yl-2-ylidene))bis(4-methyl-5-((E)-phenyldiazenyl)thiazole)]
Effect on viral replication (in words) [1]: inhibiting both viral adsorption and replication | inhibition at 20 µg/mL [1]: 37% | inhibition at 40 µg/mL [1]: 48% | inhibition at 60 µg/mL [1]: 56% | Viral count (treated) ([1]; 20 µg/ml): 1 × 10^7 | Viral count (treated) ([1]; 40 µg/ml): 0.8 × 10^7 | Viral count (treated) ([1]; 60 µg/ml): 0.7 × 10^7 | inhibition at 20 µg/mL [2]: 0% | inhibition at 40 µg/mL [2]: 12% | inhibition at 60 µg/mL [2]: 37% | Viral count (treated) ([2]; 20 µg/ml): 1.6 × 10^7 | Viral count (treated) ([2]; 40 µg/ml): 1.4 × 10^7 | Viral count (treated) ([2]; 60 µg/ml): 1 × 10^7 | Effect on viral adsorption (in words) [3]: inhibiting both viral adsorption and replication | inhibition at 20 µg/mL [3]: 42% | inhibition at 40 µg/mL [3]: 57% | inhibition at 60 µg/mL [3]: 85% | Viral count (treated) ([3]; 20 µg/ml): 0.92 × 10^7 | Viral count (treated) ([3]; 40 µg/ml): 0.68 × 10^7 | Viral count (treated) ([3]; 60 µg/ml): 0.24 × 10^7 | Viral count (treated) ([4]; 20 ug/mL): 0.54 × 10 ^7 | Viral count (treated) ([4]; 40 ug/mL): 0 × 10 ^7 | inhibition at 20 µg/mL ([4]; Vero): 66% | inhibition at 40 µg/mL ([4]; Vero): 100% | Antiviral activity against Cox B virus (in words) ([4]; at tested concentrations): high viral inhibition | Cytotoxicity on Vero cells (cell sheet affected) ([5]; 10 µg/100µl): - | Cytotoxicity on Vero cells (cell sheet affected) ([5]; 20 µg/100µl): - | Cytotoxicity on Vero cells (cell sheet affected) ([5]; 30 µg/100µl): - | Cytotoxicity on Vero cells (cell sheet affected) ([5]; 40 µg/100µl): - | Cytotoxicity on Vero cells (cell sheet affected) ([5]; 50 µg/100µl): - | Cytotoxicity on Vero cells (cell sheet affected) ([5]; 70 µg/100µl): M | Cytotoxicity on Vero cells (cell sheet affected) ([5]; 80 µg/100µl): M | Cytotoxicity on Vero cells (cell sheet affected) ([5]; 90 µg/100µl): M | Cytotoxicity on Vero cells (cell sheet affected) ([5]; 100 µg/100µl): M | Safety effect on Vero cells (in words) ([5]; Table 1, 24 h): dense and coloured that made masking to the cell sheet
